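Values below derive from 48-hour exposures of cells grown in 96-well plates, with endpoints linearly interpolated between the two concentrations bracketing the appropriate inhibition level. Abbreviation: GI50, concentration required for 50% inhibition of growth.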 The source made the active and inactive calls. No stated cut-off is given here; in the data, active = GI50 up to about 1.1 µM and inactive = higher.
What was measured:
Assay in all cases: NCI tumour cell line growth inhibition, 48 h
[1] = tested on: 786-0
[2] = tested on: A498
[3] = tested on: A549
[4] = tested on: ACHN
[5] = tested on: CAKI-1
[6] = tested on: CCRF-CEM
[7] = tested on: COLO 205
[8] = tested on: DLD-1
[9] = tested on: DMS-273
[10] = tested on: EKVX
[11] = tested on: HCC 2998
[12] = tested on: HCT-116
[13] = tested on: HCT-15
[14] = tested on: HL-60
[15] = tested on: HOP-18
[16] = tested on: HOP-62
[17] = tested on: HOP-92
[18] = tested on: HT-29
[19] = tested on: IGROV-1
[20] = tested on: K562
[21] = tested on: KM-20L2
[22] = tested on: KM12
[23] = tested on: LOX IMVI
[24] = tested on: LXFL 529
[25] = tested on: M14
[26] = tested on: M19-MEL
[27] = tested on: MOLT-4
[28] = tested on: Malme-3M
[29] = tested on: NCI-H226
[30] = tested on: NCI-H23
[31] = tested on: NCI-H460
[32] = tested on: NCI-H522
[33] = tested on: OVCAR-3
[34] = tested on: OVCAR-4
[35] = tested on: OVCAR-5
[36] = tested on: OVCAR-8
[37] = tested on: RPMI-8226
[38] = tested on: RXF 393
[39] = tested on: RXF 631
[40] = tested on: SF-268
[41] = tested on: SF-295
[42] = tested on: SF-539
[43] = tested on: SK-MEL-28
[44] = tested on: SK-MEL-2
[45] = tested on: SK-MEL-5
[46] = tested on: SK-OV-3
[47] = tested on: SN12C
[48] = tested on: SNB-19
[49] = tested on: SNB-75
[50] = tested on: SNB-78
[51] = tested on: SW-620
[52] = tested on: TK-10
[53] = tested on: U-251
[54] = tested on: UACC-257
[55] = tested on: UACC-62
[56] = tested on: UO-31
[57] = tested on: XF498

Structure (SMILES): O=S(=O)(C/C(=N\O)c1ccccc1)c1ccccc1
- GI50 [1]: > 100 µM (inactive)
- GI50 [2]: > 100 µM (inactive)
- GI50 [3]: > 100 µM (inactive)
- GI50 [4]: > 100 µM (inactive)
- GI50 [5]: > 100 µM (inactive)
- GI50 [6]: > 100 µM (inactive)
- GI50 [7]: > 100 µM (inactive)
- GI50 [8]: > 100 µM (inactive)
- GI50 [9]: > 100 µM (inactive)
- GI50 [10]: > 100 µM (inactive)
- GI50 [11]: > 100 µM (inactive)
- GI50 [12]: > 100 µM (inactive)
- GI50 [13]: > 100 µM
- GI50 [14]: > 100 µM (inactive)
- GI50 [15]: > 100 µM (inactive)
- GI50 [16]: > 100 µM (inactive)
- GI50 [17]: > 100 µM (inactive)
- GI50 [18]: > 100 µM (inactive)
- GI50 [19]: > 100 µM (inactive)
- GI50 [20]: > 100 µM (inactive)
- GI50 [21]: > 100 µM (inactive)
- GI50 [22]: > 100 µM (inactive)
- GI50 [23]: > 100 µM (inactive)
- GI50 [24]: > 100 µM (inactive)
- GI50 [25]: > 100 µM (inactive)
- GI50 [26]: > 100 µM (inactive)
- GI50 [27]: > 100 µM (inactive)
- GI50 [28]: > 100 µM (inactive)
- GI50 [29]: > 100 µM (inactive)
- GI50 [30]: > 100 µM (inactive)
- GI50 [31]: > 100 µM (inactive)
- GI50 [32]: 57.9 µM (inactive)
- GI50 [33]: > 100 µM (inactive)
- GI50 [34]: > 100 µM (inactive)
- GI50 [35]: > 100 µM (inactive)
- GI50 [36]: > 100 µM (inactive)
- GI50 [37]: > 100 µM (inactive)
- GI50 [38]: > 100 µM (inactive)
- GI50 [39]: > 100 µM (inactive)
- GI50 [40]: > 100 µM (inactive)
- GI50 [41]: > 100 µM (inactive)
- GI50 [42]: > 100 µM (inactive)
- GI50 [43]: > 100 µM (inactive)
- GI50 [44]: > 100 µM (inactive)
- GI50 [45]: > 100 µM (inactive)
- GI50 [46]: > 100 µM (inactive)
- GI50 [47]: > 100 µM (inactive)
- GI50 [48]: > 100 µM (inactive)
- GI50 [49]: > 100 µM (inactive)
- GI50 [50]: > 100 µM (inactive)
- GI50 [51]: > 100 µM (inactive)
- GI50 [52]: > 100 µM (inactive)
- GI50 [53]: > 100 µM (inactive)
- GI50 [54]: > 100 µM (inactive)
- GI50 [55]: > 100 µM (inactive)
- GI50 [56]: > 100 µM (inactive)
- GI50 [57]: 59.3 µM (inactive)

Reference: ChEMBL document CHEMBL1201862, “PubChem BioAssay data set” (2004)
